Results reported in patent US10501748B2, “Methods and compositions for integration of an exogenous sequence within the genome of plants” (Dow AgroSciences LLC, priority 2013, dated 2019).

Experiments:
[1] = test system: scutella of cv. Bobwhite MPB26RH and cv. Clearfield Janz (N653/N653); assay: basal tolerance/resistance to IMAZAMOX at the callus induction stage; format: cell-based, Triticum aestivum
Experimental: The basal tolerance of the donor wheat line cv. Bobwhite MPB26RH and basal resistance of cv. Clearfield Janz (N653/N653) genotype to IMAZAMOX® at the callus induction stage was determined as follows: Scutella of immature zygotic embryos from each wheat line were isolated as described previously and placed in 10 cm PETRI™ dishes containing CIM medium supplemented with 0, 50, 100, 200, 300, 400 and 500 nM IMAZAMOX® respectively. Twenty scutella were placed in each PETRI™ dish. A total of 60 scutella from each of the donor wheat line cv. Bobwhite MPB26RH and cv. Clearfield Janz genotype were tested for basal tolerance and basal resistance response, respectively, at each IMAZAMOX® concentration. After incubation at 24° C. in the dark for 4 weeks, the amount of somatic embryogenic callus formation (SEC) at each IMAZAMOX® concentration was recorded. […] Bobwhite MPB26RH was reduced by about 70% at 100 nM IMAZAMOX®, compared to untreated samples. Callus formation for the cv. Clearfield Janz genotype was unaffected, relative to the untreated control, at any IMAZAMOX® concentrations tested.

[2] = test system: somatic embryogenic callus of cv. Bobwhite MPB26RH; assay: basal tolerance to IMAZAMOX at the plant regeneration stage; format: cell-based, Triticum aestivum; settings: 200 nM, 2 weeks, compared to untreated samples
Experimental: The basal tolerance of the donor wheat line cv. Bobwhite MPB26RH to IMAZAMOX® at the plant regeneration stage was determined as follows: Scutella of immature zygotic embryos from the donor wheat line were isolated as described previously and placed in 10 cm PETRI™ dishes containing CIM medium. Somatic embryogenic callus was allowed to form by incubating at 24° C. in the dark for 4 weeks. The SEC was transferred to 10 cm PETRI™ dishes containing DRM medium supplemented with 0, 100, 200, 300, 400, 500 and 1000 nM IMAZAMOX® respectively. Twenty CIM were placed in each PETRI™ dish. A total of 60 CIM were tested for basal tolerance response at each IMAZAMOX® concentration. After incubation for 2 weeks at 24° C. under a 16/8 (light/dark) hour photoperiod in a growth room, the regeneration response was recorded.

[3] = test system: cv. Clearfield Janz (S653/S653) and (N653/N653) plants; assay: basal tolerance/resistance to IMAZAMOX at the plant regeneration stage, modified approach (plant growth); format: in vivo, Triticum aestivum; settings: 3 weeks
Experimental: The basal tolerance of the cv. Clearfield Janz (S653/S653) genotype and basal resistance of the cv. Clearfield Janz (N653/N653) genotype to IMAZAMOX® at the plant regeneration stage was determined using a modified approach, as cv. […] Seed for each cv. Clearfield Janz genotype was germinated using the aseptic approach described above for producing wheat mesophyll protoplasts. The germinated seedlings were multiplied in vitro by sub-culturing on multiplication medium. Following multiplication, plants for each genotype were transferred to 10 cm PETRI™ dishes containing plant growth medium (MS+10 μM BA+0.8% agar) supplemented with 0, 100, 300, 600, 900, 1200, 1500 and 3000 nM IMAZAMOX®, respectively. Ten plants were placed in each PETRI™ dish. A total of 30 plants per genotype were tested for basal response at each IMAZAMOX® concentration. After incubation for 3 weeks at 24° C. under a 16/8 (light/dark) hour photoperiod in a growth room, the growth response was recorded. […] This response was similar to that observed for the cv. Bobwhite MPB26RH (S653/S653) genotype. In contrast, plant growth for the cv.

[4] = test system: regenerated plants of cv. Bobwhite MPB26RH; assay: basal tolerance to IMAZAMOX at the plant rooting stage; format: in vivo, Triticum aestivum; settings: all concentrations tested (100-500 nM), 3 weeks
Experimental: The basal tolerance of the donor wheat line cv. Bobwhite MPB26RH to IMAZAMOX® at the plant rooting stage was determined as follows: Scutella of immature zygotic embryos from the donor wheat line were isolated as described previously and placed in 10 cm PETRI™ dishes containing CIM medium. Somatic embryogenic callus was allowed to form by incubating at 24° C. in the dark for 4 weeks. The SEC was transferred to 10 cm PETRI™ dishes containing DRM medium and incubated for 2 weeks at 24° C. under a 16/8 (light/dark) hour photoperiod to allow plant regeneration to take place. Regenerated plants were transferred to 10 cm PETRI™ dishes containing RM medium supplemented with 0, 100, 200, 300, 400, 500 nM IMAZAMOX®, respectively. Twenty regenerated plants were placed in each PETRI™ dish. A total of 60 regenerated plants were tested for basal tolerance response at each IMAZAMOX® concentration. After incubation for 3 weeks at 24° C. under a 16/8 (light/dark) hour photoperiod in a growth room, the root formation response was recorded.

[5] = test system: cv. Clearfield Janz (S653/S653) and (N653/N653) plants; assay: basal tolerance/resistance to IMAZAMOX at the plant rooting stage, modified approach; format: in vivo, Triticum aestivum; settings: 2 weeks
Experimental: The basal tolerance of the cv. Clearfield Janz (S653/S653) genotype and basal resistance of the cv. Clearfield Janz (N653/N653) genotype to IMAZAMOX® at the plant rooting stage was determined using a modified approach, as cv. […] Seed for each cv. Clearfield Janz genotype was germinated using the aseptic approach described above for producing wheat mesophyll protoplasts. The germinated seedlings were multiplied in vitro by sub-culturing on multiplication medium. Following multiplication, plants for each genotype were transferred to 10 cm PETRI™ dishes containing plant rooting medium (½ MS, 0.5 mg/L NAA, 0.8% agar) supplemented with 0, 50, 100, 200 and 250 nM IMAZAMOX®, respectively. Three plants were placed in each PETRI™ dish. A total of 6 plants per genotype were tested for basal response at each IMAZAMOX® concentration. After incubation for 2 weeks at 24° C. under a 16/8 (light/dark) hour photoperiod in a growth room, the root formation response was recorded.
Clearfield Janz (N653/N653) genotype was restricted, compared to untreated samples, at 250 nM IMAZAMOX®. […] Clearfield Janz (S653/S653) genotype at all concentrations of IMAZAMOX® tested, compared to untreated samples.

In the case of `COCc1cnc(C2=NC(C)(C(C)C)C(=O)N2)c(C(=O)O)c1` (centres unmarked) [IMAZAMOX], the “reduction of SEC formation” value ([1]; cv. Bobwhite MPB26RH, 100 nM, 4 weeks, compared to untreated samples) is reported as “about 70%”, the “callus formation relative to untreated control” value ([1]; cv. Clearfield Janz (N653/N653), any concentration tested (50-500 nM)) is reported as “unaffected” and the “reduction of plant regeneration” value [2] is reported as “about 80%”. For the same molecule, the “concentration above which plant growth was strongly suppressed” value ([3]; cv. Clearfield Janz (N653/N653)) was “exceeded 2,000 nM”, the “plant growth compared to untreated samples” value ([3]; cv. Clearfield Janz (S653/S653), medium containing at least 200 nM) was “severely reduced” and the “root formation compared to untreated samples” value [4] was “severely restricted”. The “root formation compared to untreated samples” value ([5]; cv. Clearfield Janz (N653/N653), 250 nM) was “restricted” and the “root formation compared to untreated samples” value ([5]; cv. Clearfield Janz (S653/S653), all concentrations tested (50-250 nM)) was “severely restricted”.
